# Like-named read-outs stand apart in the source and are kept apart here.
# Tests used:
# SH-SY5Y cells [1] = assay: AK (adenylate kinase) release ToxiLight cytotoxicity assay; further: reference of the scale not given here
# SH-SY5Y cells [2] = assay: Nuclear count from microscopy images (cellular growth and toxicity); further: reference of the scale not given here
# SH-SY5Y cells [3] = system: SH-SY5Y cells; further: reference of the scale not given here
# endogenous TFEB = assay: TFEB nuclear translocation, immunocytochemistry high-content imaging; format: cell-based
# endogenous TFE3 = assay: TFE3 nuclear translocation, immunocytochemistry high-content imaging; format: cell-based
# [4] = PKIS2 primary screening, DQ Red BSA intensity
# [5] = PKIS2 primary screening, DQ Red BSA spot count
SMILES,AK (SH-SY5Y cells [1]; PKIS2 primary screening),Nuclear Count (SH-SY5Y cells [2]; PKIS2 primary screening),DQ Intensity (SH-SY5Y cells [3]; [4]),DQ Spot (SH-SY5Y cells [3]; [5]),TFEB % (endogenous TFEB; PKIS2 primary screening),TFE3 % (endogenous TFE3; PKIS2 primary screening),DQ Intensity (SH-SY5Y cells [3]; PKIS2 primary screening),DQ Spot (SH-SY5Y cells [3]; PKIS2 primary screening),AK (SH-SY5Y cells [1]; PKIS2 primary screen),Nuclear Count (SH-SY5Y cells [2]; PKIS2 primary screen),"DQ Intensity (SH-SY5Y cells [3]; PKIS2 primary screen, DQ Red BSA intensity)","DQ Spot (SH-SY5Y cells [3]; PKIS2 primary screen, DQ Red BSA spot count)",TFEB % (endogenous TFEB; PKIS2 primary screen),TFE3 % (endogenous TFE3; PKIS2 primary screen)
Cl.Cl.NCC(NC(=O)c1cc(-c2cccnc2)c(-c2ccnc3[nH]ccc23)s1)c1ccccc1 (stereo not drawn) [UNC10225315A],87.17,113.28,78.29,90.57,2.45%,8.64%,,,,,,,,
COc1cc(Nc2nccc(-c3c(-c4cccc(NC(=O)c5c(F)cccc5F)c4)nn4ccccc34)n2)cc(OC)c1OC [UNC10225318A],96.57,94.38,,,6.03%,5.80%,105.65,109.19,,,,,,
Fc1ccc(-c2ncn(CCCN3CCOCC3)c2-c2cccnc2)cc1 [UNC10225320A],125.08,104.41,94.06,100.66,7.10%,16.30%,,,,,,,,
Cc1ccc2c(-c3ccncc3)c(-c3ccc(F)cc3)nn2c1.Cl [UNC10225321A],67.03,114.41,88.59,94.42,3.59%,14.14%,,,,,,,,
CC(C)c1ccc(O)cc1Nc1ccnc2ccc(C(F)(F)F)cc12 [UNC10225322A],93.97,91.30,103.64,104.80,7.26%,14.84%,,,,,,,,
O=C(Nc1cccc(-c2nn3ccccc3c2-c2ccnc(Nc3cccc(C(F)(F)F)c3)n2)c1)c1c(F)cccc1F [UNC10225325A],71.36,61.45,,,6.17%,14.69%,102.24,131.00,,,,,,
O=c1cc(N2CCOCC2)nc2n(Cc3cccc(F)c3)ccn12 [UNC10225332A],128.93,95.52,,,6.97%,15.66%,100.57,98.19,,,,,,
COc1ccc(-c2nc3n(c2-c2ccncc2)CCC3)cc1 [UNC10225334B],75.67,89.36,91.69,94.15,9.58%,11.14%,,,,,,,,
CC1=C(C(=O)Nc2cc3cn[nH]c3cc2F)C(c2ccc(C(F)(F)F)cc2)CC(=O)N1 (stereo not drawn) [UNC10225339A],70.62,108.36,,,3.31%,22.61%,158.90,127.41,,,,,,
Nc1ncnc2c1nc(-c1ccccc1)n2-c1ccccc1 [UNC10225340A],115.76,115.47,,,8.74%,8.63%,122.27,108.09,,,,,,
CCS(=O)(=O)c1ccc(OC)c(Nc2nccc(-c3c(-c4cccc(NC(=O)c5c(F)cccc5F)c4)nn4ncccc34)n2)c1 [UNC10225342A],86.17,104.33,,,6.81%,13.07%,69.43,80.86,,,,,,
O=c1cc(N2CCOCC2)nc2n(Cc3ccc(F)c(Cl)c3)ccn12 [UNC10225343A],80.61,115.81,,,4.66%,7.68%,102.25,107.68,,,,,,
C[C@@H](Oc1cc(-n2cnc3ccc(-c4ccncc4)cc32)sc1C(N)=O)c1ccccc1Cl [UNC10225348A],91.16,41.11,,,10.36%,36.52%,133.73,158.98,,,,,,
O=C(Nc1c(F)cccc1F)c1cc(C(=O)c2ccccc2F)c[nH]1 [UNC10225351A],,,,,,,,,106.59,134.69,115.15,113.72,3.75%,7.96%
OCCCNc1nccc(-c2c(-c3cccc(C(F)(F)F)c3)nn3cc(C(F)(F)F)ccc23)n1 [UNC10225352A],111.75,112.73,,,4.95%,11.93%,93.14,97.34,,,,,,
Cc1ccc(NC(=O)Nc2cc(C(C)(C)C)nn2-c2ccccc2)cc1 [UNC10225353A],76.54,116.98,,,9.78%,7.76%,116.80,100.99,,,,,,
Cc1ccccc1Cn1ccn2c(=O)cc(N3CCOCC3)nc12 [UNC10225355A],91.19,89.36,,,2.12%,15.51%,95.37,115.18,,,,,,
